Experimental data as given in ChEMBL document CHEMBL1201862, “PubChem BioAssay data set” (2004).
“And” between values parts separate entries of the source, which are not always exact repeats. Equal entries are not always repeated.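 Values below derive from 48-hour exposures of cells grown in 96-well plates, with endpoints linearly interpolated between the two concentrations bracketing the appropriate inhibition level. GI50 = concentration required for 50% inhibition of growth.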 The source made the active and inactive calls. Cut-off read from the data, not from the text of the source: active = GI50 up to about 1.1 µM and inactive = higher. Starred links: 1 amine or outer side, 2 acyl side, 3 side chain; linkers in the order of their positions; H or OH if unused. Positions of bridges follow the written chain, without caps; N, C: chain ends. Non-standard residues stand in square brackets, D forms with d. Residues, ends and D or L forms follow the SMILES beside them. Chains are numbered I, II in the order given. Actinocin(9to1) = Cc1c2oc3c(C)ccc(C(=O)[*:1])c3nc-2c(C(=O)[*:2])c(N)c1=O; NMeT = CN[CH](C(=O)O)[CH](C)O; Sar = CNCC(=O)O

Tests used:
Assay in all cases: NCI anticancer screen, dose series, 48 h
ACHN = test system: ACHN
CCRF-CEM = test system: CCRF-CEM
HCT-116 = test system: HCT-116
HOP-62 = test system: HOP-62
HOP-92 = test system: HOP-92
Hs-578T = test system: Hs-578T
IGROV-1 = test system: IGROV-1
K562 = test system: K562
LOX IMVI = test system: LOX IMVI
MCF7 = test system: MCF7
MDA-N = test system: MDA-N
MOLT-4 = test system: MOLT-4
NCI-H23 = test system: NCI-H23
NCI-H460 = test system: NCI-H460
NCI-H522 = test system: NCI-H522
OVCAR-8 = test system: OVCAR-8
RPMI-8226 = test system: RPMI-8226
RXF 393 = test system: RXF 393
SF-268 = test system: SF-268
SF-539 = test system: SF-539
SK-MEL-28 = test system: SK-MEL-28
SK-MEL-2 = test system: SK-MEL-2
SN12C = test system: SN12C
SNB-75 = test system: SNB-75
SW-620 = test system: SW-620
U-251 = test system: U-251
UACC-62 = test system: UACC-62
786-0 = test system: 786-0
A498 = test system: A498
A549 = test system: A549
CAKI-1 = test system: CAKI-1
COLO 205 = test system: COLO 205
DU-145 = test system: DU-145
EKVX = test system: EKVX
HCC 2998 = test system: HCC 2998
HCT-15 = test system: HCT-15
HL-60 = test system: HL-60
HT-29 = test system: HT-29
KM12 = test system: KM12
M14 = test system: M14
MDA-MB-231 = test system: MDA-MB-231
MDA-MB-435 = test system: MDA-MB-435
Malme-3M = test system: Malme-3M
NCI-H226 = test system: NCI-H226
NCI/ADR-RES = test system: NCI/ADR-RES
OVCAR-3 = test system: OVCAR-3
OVCAR-4 = test system: OVCAR-4
OVCAR-5 = test system: OVCAR-5
PC-3 = test system: PC-3
SF-295 = test system: SF-295
SK-MEL-5 = test system: SK-MEL-5
SK-OV-3 = test system: SK-OV-3
SNB-19 = test system: SNB-19
SR = test system: SR
TK-10 = test system: TK-10
UACC-257 = test system: UACC-257
UO-31 = test system: UO-31
T47D = test system: T47D

Cc1c2oc3c(C)ccc(C(=O)NC4C(=O)NC(C(C)C)C(=O)N5CCCC5C(=O)N(C)CC(=O)N(C)C(C(C)O)C(=O)OC4C)c3nc-2c(C(=O)NC2C(=O)NC(C(C)C)C(=O)N3CCCC3C(=O)N(C)CC(=O)N(C)C(C(C)O)C(=O)OC2C)c(N)c1=O (stereo not drawn) (I: TVP[Sar][NMeT] / II: TVP[Sar][NMeT]; ester I:1-I:C, II:1-II:C; linker I:N-II:N via Actinocin(9to1); configuration not given here) was tested, and the GI50 (ACHN) was 1.69 µM (inactive), the GI50 (CCRF-CEM) was 1.59 µM (inactive) and 957 nM (active) and the GI50 (HCT-116) was 556 nM (active) and 472 nM (active). The GI50 (HOP-62) was 1.18 µM (inactive) and 792 nM (active), the GI50 (HOP-92) was > 1 µM (active) and 1.9 µM (inactive) and the GI50 (Hs-578T) was 1.46 µM (inactive). For the same molecule, the GI50 (IGROV-1) was 512 nM (active) and 914 nM (active), the GI50 (K562) was 0.586 µM (active) and the GI50 (LOX IMVI) was 565 nM (active) and 557 nM (active). The GI50 (MCF7) was 445 nM (active) and 671 nM (active), the GI50 (MDA-N) was 1.68 µM (inactive) and the GI50 (MOLT-4) was > 1 µM (active) and 875 nM (active). The GI50 (NCI-H23) was > 1 µM (active) and 1.41 µM (inactive), the GI50 (NCI-H460) was 470 nM (active) and 401 nM (active) and the GI50 (NCI-H522) was 173 nM (active) and 255 nM (active). For the same molecule, the GI50 (OVCAR-8) was 1.1 µM (active), the GI50 (RPMI-8226) was 0.773 µM (active) and the GI50 (RXF 393) was 453 nM (active) and 820 nM (active). For the same molecule, the GI50 (SF-268) was > 1 µM (active) and 1.63 µM (inactive), the GI50 (SF-539) was 518 nM (active) and 533 nM (active) and the GI50 (SK-MEL-28) was 583 nM (active) and 769 nM (active). The GI50 (SK-MEL-2) was 0.719 µM (active), the GI50 (SN12C) was > 1 µM (active) and 1.26 µM (inactive) and the GI50 (SNB-75) was 313 nM (active) and 186 nM (active). The GI50 (SW-620) was > 1 µM (active) and 834 nM (active), the GI50 (U-251) was 495 nM (active) and 369 nM (active) and the GI50 (UACC-62) was 0.478 µM (active).
C=CCOC(=O)NC1C(OC(C)[C@@H](NC(=O)OCc2ccccc2)C(=O)OC(C)(C)C)OC(COC(C)=O)C(OC(C)=O)C1OC(C)=O (stereo partly drawn) was tested, and the GI50 (786-0) was > 100 µM (inactive), the GI50 (A498) was > 100 µM (inactive) and the GI50 (A549) was > 100 µM (inactive). The GI50 (ACHN) was > 100 µM (inactive), the GI50 (CAKI-1) was > 100 µM (inactive) and the GI50 (CCRF-CEM) was 53.3 µM (inactive). The GI50 (COLO 205) was > 100 µM (inactive), the GI50 (DU-145) was > 100 µM (inactive) and the GI50 (EKVX) was > 100 µM (inactive). For the same molecule, the GI50 (HCC 2998) was > 100 µM (inactive), the GI50 (HCT-116) was > 100 µM (inactive) and the GI50 (HCT-15) was > 100 µM. For the same molecule, the GI50 (HL-60) was 69.5 µM (inactive), the GI50 (HOP-62) was > 100 µM (inactive) and the GI50 (HOP-92) was > 100 µM (inactive). For the same molecule, the GI50 (HT-29) was > 100 µM (inactive), the GI50 (Hs-578T) was 72.4 µM (inactive) and the GI50 (IGROV-1) was > 100 µM (inactive). For the same molecule, the GI50 (K562) was 72.9 µM (inactive), the GI50 (KM12) was > 100 µM (inactive) and the GI50 (LOX IMVI) was 86.7 µM (inactive). The GI50 (M14) was 46.1 µM (inactive), the GI50 (MCF7) was > 100 µM (inactive) and the GI50 (MDA-MB-231) was 15.1 µM (inactive). For the same molecule, the GI50 (MDA-MB-435) was 39.4 µM (inactive), the GI50 (MDA-N) was > 100 µM (inactive) and the GI50 (MOLT-4) was 25.8 µM (inactive). For the same molecule, the GI50 (Malme-3M) was > 100 µM (inactive), the GI50 (NCI-H226) was > 100 µM (inactive) and the GI50 (NCI-H23) was > 100 µM (inactive). The GI50 (NCI-H460) was > 100 µM (inactive), the GI50 (NCI-H522) was 63.8 µM (inactive) and the GI50 (NCI/ADR-RES) was 50.6 µM (inactive). For the same molecule, the GI50 (OVCAR-3) was > 100 µM (inactive), the GI50 (OVCAR-4) was > 100 µM (inactive) and the GI50 (OVCAR-5) was > 100 µM (inactive). For the same molecule, the GI50 (OVCAR-8) was 65 µM (inactive), the GI50 (PC-3) was 47 µM (inactive) and the GI50 (RPMI-8226) was 62.4 µM (inactive). For the same molecule, the GI50 (RXF 393) was > 100 µM (inactive), the GI50 (SF-268) was > 100 µM (inactive) and the GI50 (SF-295) was > 100 µM (inactive). The GI50 (SF-539) was > 100 µM (inactive), the GI50 (SK-MEL-28) was > 100 µM (inactive) and the GI50 (SK-MEL-5) was > 100 µM (inactive). For the same molecule, the GI50 (SK-OV-3) was > 100 µM (inactive), the GI50 (SN12C) was 43.4 µM (inactive) and the GI50 (SNB-19) was > 100 µM (inactive). For the same molecule, the GI50 (SNB-75) was 2.85 µM (inactive), the GI50 (SR) was 79.8 µM (inactive) and the GI50 (SW-620) was > 100 µM (inactive). The GI50 (TK-10) was > 100 µM (inactive), the GI50 (U-251) was > 100 µM (inactive) and the GI50 (UACC-257) was > 100 µM (inactive). For the same molecule, the GI50 (UACC-62) was > 100 µM (inactive) and the GI50 (UO-31) was 17.2 µM (inactive).
In the case of O=[N+]([O-])/C=C(\CS(=O)(=O)c1ccccc1)c1ccc2c(c1)OCO2, the GI50 (786-0) is reported as 38.5 µM (inactive), the GI50 (A498) is reported as 31.8 µM (inactive) and the GI50 (A549) is reported as 37.8 µM (inactive). The GI50 (ACHN) was 45.6 µM (inactive), the GI50 (CAKI-1) was 29.2 µM (inactive) and the GI50 (CCRF-CEM) was 0.56 µM (active). For the same molecule, the GI50 (COLO 205) was 53.5 µM (inactive), the GI50 (DU-145) was 38.9 µM (inactive) and the GI50 (EKVX) was > 100 µM (inactive). For the same molecule, the GI50 (HCC 2998) was > 100 µM (inactive), the GI50 (HCT-116) was 34.8 µM (inactive) and the GI50 (HCT-15) was 37.2 µM. For the same molecule, the GI50 (HL-60) was 38 µM (inactive), the GI50 (HOP-62) was 92.9 µM (inactive) and the GI50 (HOP-92) was > 100 µM (inactive). For the same molecule, the GI50 (HT-29) was 53.1 µM (inactive), the GI50 (Hs-578T) was 38.1 µM (inactive) and the GI50 (IGROV-1) was 80.5 µM (inactive). For the same molecule, the GI50 (K562) was 66.5 µM (inactive), the GI50 (KM12) was 28.4 µM (inactive) and the GI50 (LOX IMVI) was 37.2 µM (inactive). The GI50 (M14) was 20.8 µM (inactive), the GI50 (MCF7) was 48.2 µM (inactive) and the GI50 (MDA-MB-231) was 23.1 µM (inactive). The GI50 (MDA-MB-435) was 23.8 µM (inactive), the GI50 (MDA-N) was 39.2 µM (inactive) and the GI50 (MOLT-4) was 67.9 µM (inactive). For the same molecule, the GI50 (NCI-H226) was 30 µM (inactive), the GI50 (NCI-H23) was 5.69 µM (inactive) and the GI50 (NCI-H522) was 21.7 µM (inactive). For the same molecule, the GI50 (NCI/ADR-RES) was 19.7 µM (inactive), the GI50 (OVCAR-3) was 28.4 µM (inactive) and the GI50 (OVCAR-5) was 27 µM (inactive). The GI50 (OVCAR-8) was 60.1 µM (inactive), the GI50 (RPMI-8226) was 87.1 µM (inactive) and the GI50 (RXF 393) was 64.3 µM (inactive). For the same molecule, the GI50 (SF-268) was 27.2 µM (inactive), the GI50 (SF-295) was 36.7 µM (inactive) and the GI50 (SF-539) was > 100 µM (inactive). The GI50 (SK-MEL-28) was 69.2 µM (inactive), the GI50 (SK-MEL-5) was 45.1 µM (inactive) and the GI50 (SK-OV-3) was 33.1 µM (inactive). The GI50 (SN12C) was 39.7 µM (inactive), the GI50 (SNB-75) was > 100 µM (inactive) and the GI50 (SR) was 47.5 µM (inactive). The GI50 (SW-620) was 75.3 µM (inactive), the GI50 (T47D) was > 100 µM (inactive) and the GI50 (U-251) was 88.5 µM (inactive). The GI50 (UACC-62) was 48.2 µM (inactive) and the GI50 (UO-31) was 28.6 µM (inactive).
